According to US20230165970A1, “COMPOSITIONS AND METHODS FOR THE TREATMENT OF BACTERIAL INFECTIONS” (priority 2017, published 2023):
*1 amine or outer side, *2 acyl side, *3 side chain or, on linkers, in order; H or OH if unused. Where a SMILES comes first, the peptide text is derived from it. Bridges are numbered along the chain shown (N, C = ends). [ ]: non-standard residue; d: D form. The star is where a group is joined. Propargyl(OCH2CH2)4CO = C#CCOCCOCCOCCOCCC(=O)*; X3 = CCCCC[C@@H](O)[C@H](N[*:1])C(=O)[*:2]; Nle = CCCC[C@H](N)C(=O)O; Dab = NCC[C@H](N)C(=O)O

Test system: LPS from E. coli O111:B4
Test: LPS binding/neutralization by Limulus Amebocyte Lysate (LAL) assay
Format: biochemical
Details: LPS 1-10,000 ng/mL, test article 0.25-10 μM
Method: The LAL assay (Charles River) was used to determine the binding affinity of test articles to LPS.
(§1) For the assay, 25 μL purified LPS from E. coli O111:1B4 (Sigma) at doses ranging from 1-10,000 ng/mL were incubated with 25 μL of test article at concentrations ranging from 0.25-10 NM. After 5 min incubation at 37° C., 50 μL of LAL reagent, which reacts with lipid A portion from LPS, was added to corresponding wells. After 15 min, absorbance at 405 nm was read on EnSpire plate reader (Perkin Elmer). The % LPS neutralization is calculated relative to a PBS control (background) and LPS control at each concentration (positive control).
LPS neutralization=(1−(absorbance test article−PBS with LAL reagent)/(absorbance no test article−PBS with LAL reagent))×100
To obtain a single value of LPS neutralization for each test article, the area under the curve (AUC) for dose-response of test articles from […] for each LPS concentration was calculated using Prism 7 software. The % LPS neutralization is the sum of the AUCs for each LPS concentration determined relative to the maximal AUC achievable×100.
as §1, with “O111:B4” for “O111:1B4”, “μM.” for “NM.”

| Compound | % LPS neutralization of TM (sum of AUCs relative to maximal AUC (Table 14)) | % LPS neutralization (sum of AUCs relative to maximal AUC (Table 15)) |
| --- | --- | --- |
| C#CCOCCOCCOCCOCCC(=O)N[C@@H](CCCC)C(=O)N[C@@H](CCN)C(=O)N[C@H](C(=O)N[C@@H](CCN)C(=O)N[C@H]1CCNC(=O)[C@H]([C@@H](C)O)NC(=O)[C@H](CCN)NC(=O)[C@H](CCN)NC(=O)[C@H](CC(C)C)NC(=O)[C@@H](Cc2ccccc2)NC(=O)[C@H](CCN)NC1=O)[C@H](O)CCCCC [Int-94] ({Propargyl(OCH2CH2)4CO}-[Nle][Dab][X3][Dab][Dab][Dab][dF]L[Dab][Dab]T; lactam 5-C) | 79.3% | – |
| colistin sulfate | – | 9.21% |
